The results in this text go back to patent US20130224151A1, “Use of FAAH Inhibitors for Treating Abdominal, Visceral and Pelvic Pain” (UNITED STATES OF AMERICA, priority 2010, published 2013).

In the test the test system is Female Wistar rats. Kind of test: Partial restraint stress-induced hyperalgesia model. Particulars: 3 mg/kg or 10 mg/kg SC one hour prior to 2 h PRS, CRD 15 minutes after PRS. The class given is in vivo, rat. As to the method: Female Wistar rats surgically prepared for electromyography as described in Example 1 were used to evaluate the effects of the FAAH inhibitors (a) compound A or (b) compound B, on colorectal sensitivity and compliance after a 2 hour partial restraint stress session.
Partial restraint stress (PRS), a relatively mild stress, was induced as previously described (Morteau et al. Dig. Dis. Sci. 1994: 39:1239-48; “Guanylate cyclase C-mediated antinociceptive effects of linaclotide in rodent models of visceral pain”, Eutamene H, Bradesi S, Larauche M, Theodorou V, Beaufrand C, Ohning G, Fioramonti J, Cohen M, Bryant A P, Kurtz C, Currie M G, Mayer E A, Bueno L, Neurogastroenterology and motility —2010 Volume: 22 p. 312-322; “Stress-induced changes in intestinal transit in the rat: a model for irritable bowel syndrome”, Williams C L, Villar R G, Peterson J M, Burks T F, Gastroenterology—1988 p. 611-21). Female rats were lightly anesthetized with diethyl ether and their shoulders, upper forelimbs and thoracic trunk were wrapped in a confining harness of paper tape to restrict, but not prevent body movements. Control sham-stress animals were anesthetized but not wrapped. […]
Rats were treated orally with compound A (30 mg/kg in DMSO/cremophor/isotonic saline (1:1:8 v:v:v), n=8), or vehicle only (DMSO/cremophor/isotonic saline (1:1:8 v:v:v), 1 mL, n=9) with or without 2 hour PRS sessions. The number of abdominal contractions was recorded by electromyography per 5-minute period (y axis) for each distension pressure of 0 mmHg, 15 mmHg, 30 mmHg, 45 mmHg and 60 mmHg (x axis); the ? symbols represent the results for the control+vehicle group (n=9); the symbols ? represent the results for the stress+vehicle group (n=9); the symbols ? represent the results for the stress+compound A group (n=8). Data are mean values with SEM.
Rats were treated orally with compound B (30 mg/kg in DMSO/cremophor/isotonic saline (1:1:8 v:v:v), n=9), or vehicle only (DMSO/cremophor/isotonic saline (1:1:8 v:v:v), 1 mL, n=9) with or without 2 hour PRS sessions. The number of abdominal contractions was recorded by electromyography per 5-minute period (y axis) for each distension pressure of 0 mmHg, 15 mmHg, 30 mmHg, 45 mmHg and 60 mmHg (x axis); the symbols ? represent the results for the control+vehicle group (n=9); the symbols ? represent the results for the stress+vehicle group (n=9); and the symbols ? represent the results for the stress+compound B group (n=9). Data are mean values with SEM.
The effect of FAAH inhibitor URB597 was tested at 3 mg/kg and 10 mg/kg in the PRS model of visceral hyperalgesia essentially as described in Examples 1 and 2. URB597 was formulated as a suspension in vehicle [DMSO/cremophor/isotonic saline (1:1:8 v:v:v)]. […]

For `NC(=O)c1cccc(-c2cccc(OC(=O)NC3CCCCC3)c2)c1` [URB597, 3′-(aminocarbonyl) biphenyl-3-yl cyclohexyl carbamate, reference compound], the “number of abdominal contractions (antihyperalgesic effect) in PRS model” value is recorded as “did not exhibit an antihyperalgesic effects”. The “number of abdominal contractions (antihyperalgesic effect) in PRS model” value (listed as URB-597) is on record as “no differences in number of abdominal contractions were observed”.
